{"source": "patent US12534432B2", "about": "“Trisulfide compound” (Kyowa Pharma Chemical Co., Ltd., priority 2020, dated 2026)", "test": "hydrogen sulfide-trapping ability by methylene blue spectrophotometry", "details": "room temperature", "description": "The presence or absence of a hydrogen sulfide-trapping ability (hydrogen sulfide elimination effect) of pantethine trisulfide (PANSSS) was evaluated through methylene blue spectrophotometry.\nSodium sulfide nonahydrate (Na2S·9H2O) was dissolved in purified water to prepare a 50 μmol/L sodium sulfide nonahydrate solution, which was used as a H2S standard solution.\np-Aminodimethylaniline was dissolved in 10 N sulfuric acid to prepare 1 mmol/L DPDA solution.\nIron (III) chloride hexahydrate was dissolved in 1% sulfuric acid to prepare a 3 mmol/L FeCl3·6H2O solution.\nA 0.5 mmol/L pantethine trisulfide solution was prepared by dissolving pantethine trisulfide in 25 mmol/L phosphate buffer (PBS, pH 7).\n10 mL of the H2S standard solution (0.5 μmol, standard) was added to a stoppered test tube and stirred. 1 mL (0.5 μmol, 1 eq.) of PBS (blank) or the pantethine trisulfide solution was added to this solution and stirred for a predetermined time (0, 5, 15 or 30 minutes). After stirring, 1 mL (1 μmol, 2 eq.) of the DPDA solution and 1 mL (3 μmol, 6 eq.) of the FeCl3·6H2O solution were added thereto and further stirred, and the absorbance (wavelength: 668 nm) of the solution was measured after the absorbance of the solution stopped changing (that is, after color development due to methylene blue production was completed). This test was conducted under the conditions of room temperature.", "data": [{"smiles": "CC(C)(CO)[C@@H](O)C(=O)NCCC(=O)NCCSSSCCNC(=O)CCNC(=O)[C@H](O)C(C)(C)CO", "note": "[pantethine trisulfide]", "values": [{"measurement": "absorbance (wavelength: 668 nm) compared to the blank", "setting": "0.5 μmol H2S, 1 eq. pantethine trisulfide in PBS pH 7, stirring 0, 5, 15 or 30 minutes", "value": "the longer the contact time (reaction time) between H2S and pantethine trisulfide, the lower the absorbance compared to the blank"}, {"measurement": "hydrogen sulfide-trapping ability (hydrogen sulfide elimination effect)", "setting": "methylene blue spectrophotometry, 1 eq. to H2S", "value": "had a hydrogen sulfide-trapping ability"}]}]}
